Test results as given in patent US20200093795A1 (Secura Bio, Inc., priority 2015, published 2020).

Tests used:
[1] = test system: patients with relapsed multiple myeloma; test: Randomized, double-blind, placebo-controlled, multicenter study (PANORAMA-1) of panobinostat plus bortezomib and dexamethasone; assay type: in vivo
Protocol: Treatment was administered for a maximum of 16 cycles (48 weeks).
Demographics and baseline disease characteristics were balanced between arms. The median age was 63 years (range 28 to 84); 42% of patients were older than 65 years; 53% of patients were male. The ECOG (Eastern Cooperative Oncology Group) performance status was 0 to 1 in 93% of patients. The median number of prior therapies was 1; 48% of patients received 2 or 3 prior lines of therapy. More than half (57%) of the patients had prior stem cell transplantation. The most common prior antineoplastic therapies were corticosteroids (90%), melphalan (80%), thalidomide (53%), cyclophosphamide (47%), bortezomib (44%), and lenalidomide (19%). The median duration of follow-up was 29 months in both arms.
The primary endpoint was progression-free survival (PFS), using modified European Bone Marrow Transplant Group (EBMT) criteria, as assessed by the investigators. […] The efficacy and safety in a subgroup analysis of 193 patients who had received prior treatment with both bortezomib and an immunomodulatory agent and a median of 2 prior therapies as the benefit: risk appeared to be greater in this more heavily pretreated population than in the overall trial population. Of these 193 patients, 76% of them had received ≥2 prior lines of therapy.

[2] = test system: cardiac ventricular repolarization (QT interval); test: Pooled clinical data from over 500 patients treated with single agent panobinostat: QTc prolongation; assay type: in vivo, human
From the text: Panobinostat may prolong cardiac ventricular repolarization (QT interval).

Cc1[nH]c2ccccc2c1CCNCc1ccc(/C=C/C(=O)NO)cc1 [panobinostat] was tested, and the serious toxicities observed ([1]; PANORAMA clinical study, patients receiving panobinostat) was “severe and fatal ischemic events, severe arrhythmias and ECG changes”, the gastrointestinal toxicity ([1]; in vivo) was “common” and the “incidence of CTC Grade 3 QTc prolongation (QTcF >500 msec)” value ([2]; at a dose of 60 mg or higher) was no less than 5%. The “incidence of CTC Grade 3 QTc prolongation (QTcF >500 msec)” value ([2]; multiple indications, different dose levels, overall) was “approximately 1%”.
